Publication PMC8326471, “Synthesis and biological evaluation of new pyrazolebenzene-sulphonamides as potential anticancer agents and hCA I and II inhibitors” (Turkish Journal of Chemistry, 2021)

Legend:
[1] = test system: gingival carcinoma (Ca9-22) cells; assay: Cytotoxicity assay (MTT), Ca9-22; assay type: cell-based, human; conditions: for CC50: Homo sapiens, Ca9-22, tumor cell line, 48 h, MTT; for PSE2 times more potent than 5-FU: PSE2 relative to reference drug 5-FU; for times of potency compared to 5-FU, Ca9-22: cytotoxicity relative to 5-FU
Protocol: (§1) The cytotoxicity of the compounds 4a - 4j were assayed towards human tumor cell lines [gingival carcinoma (Ca9–22), oral squamous cell carcinoma (HSC-2)] and human normal oral cells [gingival fibroblasts (HGF), and periodontal ligament fibroblasts (HPLF)] as described [42, 54 – 56]. In brief, all cells were cultured in Dulbecco’s modified eagle’s medium (DMEM) supplemented with 10% fetal bovine serum (FBS). The following concentrations of the compounds in dimethylsulfoxide (DMSO) were added to the medium and incubated at 37 ° C for 48 h: 4a - 4j ([…]), melphalan (3.12, 6.25, 12.5, 25. 50, 100, 200 and […]) and 5-FU ([…]). The media that contained the same concentration of DMSO ([…], 0.03125, 0.0625, 0.125, 0.25, 0.5 or 1%) were used as controls since DMSO above 0.25% is cytotoxic. The viable cell numbers were determined by the 3-(4,5-dimethylthiazol-2-yl)-2,5-diphenyltetrazolium bromide (MTT) assay. The CC50 values were determined from dose-response curves.
(§2) Cytotoxicity’s of the compounds 4a - 4j were evaluated towards Ca9–22, HSC-2, HSC-3, and HSC-4 human oral squamous cell carcinoma cell lines as tumor cell lines and HGF, HPLF, and HPC human normal oral cells as nontumor cells (Table 1) according to the procedure in the literature [42, 54 – 56]. 5-Fluorouracil (5-FU) was used as a reference anticancer drug.

[2] = test system: oral squamous cell carcinoma (HSC-2) cells; assay: Cytotoxicity assay (MTT), HSC-2; assay type: cell-based, human; conditions: for CC50: Homo sapiens, HSC-2, tumor cell line, 48 h, MTT; for times of potency compared to 5-FU, HSC-2: cytotoxicity relative to 5-FU
Protocol: as §1, §2

[3] = test system: HSC-3 oral squamous cell carcinoma cells; assay: Cytotoxicity assay (MTT), HSC-3; assay type: cell-based; conditions: Homo sapiens, tumor cell line, 48 h
Protocol: as §1, §2

[4] = test system: HSC-4 oral squamous cell carcinoma cells; assay: Cytotoxicity assay (MTT), HSC-4; assay type: cell-based; conditions: Homo sapiens, tumor cell line, 48 h
Protocol: as §1, §2

[5] = Cytotoxicity assay (MTT), HGF normal cells; assay type: cell-based; conditions: human, HGF gingival fibroblasts (normal oral cells), non-tumor cells
Protocol: as §1, §2

[6] = Cytotoxicity assay (MTT), HPLF normal cells; assay type: cell-based; conditions: human, HPLF periodontal ligament fibroblasts (normal oral cells), non-tumor cells
Protocol: as §1, §2

[7] = Cytotoxicity assay (MTT), HPC normal cells; assay type: cell-based; conditions: human, HPC normal oral cells, non-tumor cells
Protocol: as §1, §2

[8] = test system: human oral squamous cell carcinoma cell lines (Ca9-22, HSC-2, HSC-3, HSC-4); assay: Cytotoxicity assay, all tumor cell lines (mean, TS1, PSE1); assay type: cell-based; conditions: mean of Ca9-22, HSC-2, HSC-3, HSC-4, read-out: Tumor cell lines CC50 mean (B)
Protocol: as §1, §2
The tumor selectivity (TS1 and TS2) of each compound was calculated as described in previously reported literature procedures and these figures are presented in Table 1. Based on the TS1 values, 4f and 4g which have 2,5 and 2,4-dimethoxy substituents had the highest TS1 values in a series with 22.4 and 22.2, respectively. On the other hand, the 3,4,5-trimethoxy substituted compound 4i (TS1: 19.6) had the […] TS1 value. […] As expected, they were in accordance with the literature findings [16 – 18]. The second calculation (TS2) considered the differences of sensitivity between the malignant (Ca9–22) and non-malignant (HGF) cells derived from the same tissue (gingiva). According to TS2 values obtained, 4i (3,4,5-trimethoxy) had the highest TS2 value of 43.
The desired properties for a lead compound are being both markedly cytotoxic and selectively toxic for tumors. PSE1 reflects general cytotoxicity and selectivity potency of the compound towards all cells used, whereas PSE2 seems more specified since it was considered for the same origin cells. When the compounds tested towards OSCC lines were considered in terms of PSE2 values of the compounds. The best poly-methoxylated compounds were 4i (with 3,4,5-trimethoxy, PSE2 = 461.5) ˃ 4f (with 2,5-dimethoxy, PSE2 = 425.1) ˃ 4g (with 2,4-dimethoxy, PSE2 = 405.4) while the best mono-methoxylated derivative was 4b (with 4-methoxy, PSE2 = 205).

[9] = Cytotoxicity assay, all non-tumor cells (mean); assay type: cell-based; conditions: human, normal oral cells HGF, HPLF and HPC (mean of the three), read-out: Non-tumor cell lines CC50 mean (D)
Protocol: as §1, §2

hCA I = hCA I (Homo sapiens, UniProt P00915); assay: Carbonic anhydrase enzyme assay (esterase activity), hCA I; assay type: biochemical; conditions: for Ki: Lineweaver-Burk plot; for IC50: esterase activity, p-nitrophenyl acetate
Text: (§3) Human CA isoforms (hCAI and hCAII) were purified by the sepharose - 4B – L - tyrosine sulfanilamide affinity segregation method as reported. […] Inhibitory effects of the compounds were investigated by measuring the esterase activity according to Verpoorte et al. as described in previous studies [61 – 63].
(§4) Vmax, maximal velocity; VImax, maximal velocity of inhibitor; I, inhibitor; Ki, the inhibitor constant.

hCA II = hCA II (Homo sapiens, UniProt P00918); assay: Carbonic anhydrase enzyme assay (esterase activity), hCA II; assay type: biochemical; conditions: for Ki: Lineweaver-Burk plot; for IC50: esterase activity, p-nitrophenyl acetate
Text: as §3, §4

Chain of hCA I (P00915 whole entry, canonical isoform): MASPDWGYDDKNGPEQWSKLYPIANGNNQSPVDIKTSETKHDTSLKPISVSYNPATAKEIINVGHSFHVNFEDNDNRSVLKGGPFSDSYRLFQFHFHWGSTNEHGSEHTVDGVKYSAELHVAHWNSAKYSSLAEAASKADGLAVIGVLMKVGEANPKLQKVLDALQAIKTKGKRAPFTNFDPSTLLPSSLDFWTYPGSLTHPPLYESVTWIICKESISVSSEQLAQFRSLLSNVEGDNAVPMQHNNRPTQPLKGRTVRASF

| Compound | CC50 [1] | PSE2 times more potent than 5-FU [1] | times of potency compared to 5-FU, Ca9-22 [1] | CC50 [2] | times of potency compared to 5-FU, HSC-2 [2] | CC50 [3] | CC50 [4] | CC50 at 48 h [5] | CC50 at 48 h [6] | CC50 at 48 h [7] | CC50 [8] | CC50 at 48 h [9] | Ki (hCA I) | IC50 (hCA I) | Ki (hCA II) | IC50 (hCA II) | melting point |
| --- | --- | --- | --- | --- | --- | --- | --- | --- | --- | --- | --- | --- | --- | --- | --- | --- | --- |
| COc1cc(C2=NN(c3ccc(S(N)(=O)=O)cc3)C(c3ccc4c(c3)OCO4)C2)cc(OC)c1OC (stereo not drawn) [4i, 4-[5-(1,3-Benzodioxol-5-yl)-3-(3,4,5-trimethoxyphenyl)-4,5-dihydro-1H-pyrazol-1-yl]benzenesulphonamide] | 9.3 µM | 2.2 | 2.4 | 30.9 µM | 8.4 | 11.3 µM | 6.7 µM | 400 µM | 83.7 µM | 371 µM | 14.6 µM | 285 µM | 52.5 ± 1.8 µM | 29.7 µM | 24.1 ± 7.1 µM | 12.5 µM | 212 to 214 °C |
| COc1ccccc1C1=NN(c2ccc(S(N)(=O)=O)cc2)C(c2ccc3c(c2)OCO3)C1 (stereo not drawn) [4d, 4-[5-(1,3-Benzodioxol-5-yl)-3-(2-methoxyphenyl)-4,5-dihydro-1H-pyrazol-1-yl]benzenesulphonamide] | 13.8 µM |  | 1.6 | 17.1 µM | 15.3 | 12.4 µM | 14.9 µM | 36.9 µM | 39.7 µM | 37 µM | 14.6 µM | 37.8 µM | 28.5 ± 1.6 µM | 12.8 µM | 8.9 ± 1.9 µM | 10.7 µM | 183 to 185 °C |
| COc1ccc(OC)c(C2=NN(c3ccc(S(N)(=O)=O)cc3)C(c3ccc4c(c3)OCO4)C2)c1 (stereo not drawn) [4f, 4-[5-(1,3-Benzodioxol-5-yl)-3-(2,5-dimethoxyphenyl)-4,5-dihydro-1H-pyrazol-1-yl]benzenesulphonamide] | 9.7 µM | 2.1 | 2.3 | 15.7 µM | 16.6 | 11.5 µM | 12 µM | 400 µM | 276 µM | 147 µM | 12.2 µM | 274 µM | 27.8 ± 10.1 µM | 14 µM | 12.3 ± 2.8 µM | 16.3 µM | 144 to 146 °C |
| COc1ccc(C2=NN(c3ccc(S(N)(=O)=O)cc3)C(c3ccc4c(c3)OCO4)C2)cc1 (stereo not drawn) [4b, 4-[5-(1,3-Benzodioxol-5-yl)-3-(4-methoxyphenyl)-4,5-dihydro-1H-pyrazol-1-yl]benzenesulphonamide] | 14 µM |  | 1.6 | 18 µM | 14.5 | 16.2 µM | 18.2 µM | 400 µM | 400 µM | 98.7 µM | 16.6 µM | 300 µM | 31.9 ± 1.9 µM | 11.3 µM | 11.5 ± 4.6 µM | 16.3 µM | 171 to 173 °C |
| O=c1[nH]cc(F)c(=O)[nH]1 [5-FU, 5-Fluorouracil, reference compound] | 22 µM |  |  | 261 µM |  | 7.8 µM | 12.5 µM | 1000 µM | 1000 µM | 958 µM | 75.8 µM | 986 µM |  |  |  |  |  |
| COc1ccc(C2=NN(c3ccc(S(N)(=O)=O)cc3)C(c3ccc4c(c3)OCO4)C2)c(OC)c1 (stereo not drawn) [4g, 4-[5-(1,3-Benzodioxol-5-yl)-3-(2,4-dimethoxyphenyl)-4,5-dihydro-1H-pyrazol-1-yl]benzenesulphonamide] | 9.9 µM | 2.0 | 2.2 | 13.5 µM | 19.3 | 9.8 µM | 12.7 µM | 400 µM | 234 µM | 131 µM | 11.5 µM | 255 µM | 12.7 ± 1.7 µM | 6.7 µM | 7.8 ± 2.2 µM | 11.3 µM | 134 to 136 °C |
| COc1ccc(C2=NN(c3ccc(S(N)(=O)=O)cc3)C(c3ccc4c(c3)OCO4)C2)cc1OC (stereo not drawn) [4e, 4-[5-(1,3-Benzodioxol-5-yl)-3-(3,4-dimethoxyphenyl)-4,5-dihydro-1H-pyrazol-1-yl]benzenesulphonamide] |  |  |  | 400 µM |  | 61 µM | 400 µM | 400 µM | 400 µM | 400 µM | 227 µM | 400 µM | 25.5 ± 1.6 µM | 10.2 µM | 9.3 ± 0.6 µM | 15.2 µM | 243 to 245 °C |
